These results are taken from patent US5102912A, “Hydroxyoctadecadienic acid for the treatment of estrogen-dependent disease” (Kanoldt Arzneimittel GmbH, priority 1990, dated 1992).

In series [1] the target is T1, aromatase (Homo sapiens, UniProt P11511).
T1 construct: suspension of human placenta microsomes as a source of aromatase enzyme; from tissue; host or cells: human placenta microsomes
T1 sequence (P11511 1-503): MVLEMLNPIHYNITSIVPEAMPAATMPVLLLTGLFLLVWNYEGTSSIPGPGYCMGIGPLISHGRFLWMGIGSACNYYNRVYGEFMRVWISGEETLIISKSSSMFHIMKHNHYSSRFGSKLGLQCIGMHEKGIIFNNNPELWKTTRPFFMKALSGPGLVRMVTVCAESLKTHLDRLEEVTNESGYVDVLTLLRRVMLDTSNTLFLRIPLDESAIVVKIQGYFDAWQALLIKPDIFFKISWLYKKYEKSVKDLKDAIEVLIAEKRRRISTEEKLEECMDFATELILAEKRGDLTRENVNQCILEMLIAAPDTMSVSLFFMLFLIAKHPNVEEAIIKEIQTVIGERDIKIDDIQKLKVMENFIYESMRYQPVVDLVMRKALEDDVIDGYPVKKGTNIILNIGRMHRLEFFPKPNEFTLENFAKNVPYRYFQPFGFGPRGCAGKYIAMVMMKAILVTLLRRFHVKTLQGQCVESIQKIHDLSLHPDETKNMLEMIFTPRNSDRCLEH
Briefly: Inhibition of aromatase activity, placenta microsomes, substrate androstenedione 10 nM (Example 3). The series is classed as biochemical. As to conditions: 10 min. Here is the method:
Inhibitor tests were carried out with a suspension of human placenta microsomes as a source of aromatase enzyme. The substrate used in these competitive inhibition tests was androstenedione.
Experimental conditions for enzyme inhibition
enzyme source: placenta microsomes
substrate: androstenedione (10 nM)
tracer: ^3 H-androstenedione
Co-substrate: NADPH-regenerating system
The substrate, ^3 H-androstenedione was incubated in the presence of aromatase enzyme with and without the acid inhibitor. The aromatization of androstenedione to estradiol was measured by the release of ^3 H2 O in the process of aromatization. Aromatase activity in the presence of 9-hydroxy-10(trans)-12(cis)-octadecadienoic acid was compared with that of a control group without this inhibiting additive. Aromatase activity is shown as percent of reaction in table 2.

Series [2] in a line: Storage stability of the prepared acid. The series is classed as physicochemical.
The target of series [3] is T1, aromatase. Kind of series: Inhibition of aromatase activity, placenta microsomes, substrate androstenedione 100 nM (Example 4). The series is classed as biochemical.
Series [4] in a line: Effect in the treatment of estrogen-dependent diseases, keto form compared with hydroxy compound.

For the compound `CCCCC/C=C\C=C\C(O)CCCCCCCC(=O)O` (stereo not drawn) [9-hydroxy-10(trans)-12(cis)-octadecadienic acid], the activity at 1 µg/mL in series [1] (inhibitor 1 mg/l, without inhibitor 100 ± 9.1, read-out: Aromatase Activity (% reaction) with inhibitor) amounted to 94.4 ± 1.2%. The activity at 10 µg/mL in series [1] (inhibitor 10 mg/l, without inhibitor 100 ± 8.1, read-out: Aromatase Activity (% reaction) with inhibitor) amounted to 53.8 ± 3.8%. The activity at 100 µg/mL in series [1] (inhibitor 100 mg/l, without inhibitor 100 ± 5.5, read-out: Aromatase Activity (% reaction) with inhibitor) was 16.2 ± 3.2%. Moreover, in series [2] (even at minus 20° C), the storage stability entry is “only storable to a limited extent even at minus 20 °C”.

Take `CCCCC/C=C\C=C\C(=O)CCCCCCCC(=O)O` [9-oxo-10(trans)-12(cis)-octadecadienic acid]: the activity at 1 µg/mL in series [3] (10 min, inhibitor 1 mg/l, androstenedione 100 nM, 10 minutes, average value ± S.D. (n = 3), without inhibitor 100 ± 9.1, read-out: Aromatase activity (% reaction) with inhibitor) was 58.3 ± 3.6%. Moreover, in series [3] (10 min, inhibitor 10 mg/l, androstenedione 100 nM, 10 minutes, average value ± S.D. (n = 3), without inhibitor 100 ± 8.1, read-out: Aromatase activity (% reaction) with inhibitor), the activity at 10 µg/mL came out at 19.3 ± 3.4%. Also, the activity at 100 µg/mL in series [3] (10 min, inhibitor 100 mg/l, androstenedione 100 nM, 10 minutes, average value ± S.D. (n = 3), without inhibitor 100 ± 5.5, read-out: Aromatase activity (% reaction) with inhibitor) worked out at 6.2 ± 2.9%. The “inhibition of aromatase (in words)” value in series [3] (Example 4, table 4) is “stronger aromatase inhibiting effect”. Besides, in series [3] (from tables 2 and 4, displacement with respect to the concentration of the inhibitor), the “aromatase inhibiting effect relative to the acid in hydroxy form” value was “about 10 times stronger”. Further, the “stability compared with the product of Example 1” value in series [2] was “equally unstable as the product of Example 1”. Further, the “effect by comparison with the hydroxy compound” value in series [4] amounted to 10 fold.
